Data from US10458916B2, “Rapid tests for the detection of inhibitors of enzymes and human exposure to the same” (priority 2011, dated 2019).

What was measured:
[1] = target: T1, AChE (Electrophorus electricus, UniProt O42275); experiment: Rapid ticket test for AChE inhibitors with lyophilized AChE and NMI substrate discs, hue ratio by reader; conditions: without oxidation
Method: Filter discs ( 3/16″ diameter) of porous matrix Surewick Sample Pad C248 SA3J035V06 (Millipore). were punched from sheets using a manual punch and die.
N-methyl indoxyl (NMI) acetate (100 mg, Sigma-Aldrich) was dissolved in 100 mL 200 proof (100%) USP ethyl alcohol (Sigma-Aldrich) for a final concentration of 1 mg/mL and added to the beaker containing the filter pads. The filter discs were mixed gently with a spatula for five minutes. The discs were then carefully removed from the solution and spread out on a polystyrene sheet and dried at 45° C. for two hours. The filter discs were then removed from the oven and stored in a resealable plastic bag with desiccant. […]
The tickets were allowed to react for 15 minutes at room temperature and then inserted into the handheld fluorescence reader comprised of low light color cameras, 400 nm UV LED and custom color analysis software (FIG. 2). Enzyme inhibition was detected by the difference in the hue measurement of the Test Sample compared to the negative control (FIG. 4). The reader calculates a ratio of the hue measured in the test sample well to the hue measured in the negative control well.
Analysis was alternatively performed by visual observation of the ticket using a 400 nm UV LED flashlight (FIGS. 7 and 8). Visually, inhibition was detected directly based on the decrease in fluorescence of the test sample compared to the negative control.

[2] = tested on: Carboxylesterase (CE); experiment: Rapid ticket test with lyophilized carboxylesterase (CE) and NMI substrate discs, no sample oxidation; conditions: without oxidation
[3] = target: T2, cholinesterase in human plasma (Homo sapiens, UniProt P06276); experiment: Detection of cholinesterase inhibition in spiked human plasma on the NMI ticket; assay type: biochemical; conditions: human plasma pool spiked to final 100 ppm oxamyl, incubated overnight (22 hours) at room temperature; control zone unspiked pool
T2 construct: from tissue; host or cells: human plasma pool
T2 sequence (P06276 29-602): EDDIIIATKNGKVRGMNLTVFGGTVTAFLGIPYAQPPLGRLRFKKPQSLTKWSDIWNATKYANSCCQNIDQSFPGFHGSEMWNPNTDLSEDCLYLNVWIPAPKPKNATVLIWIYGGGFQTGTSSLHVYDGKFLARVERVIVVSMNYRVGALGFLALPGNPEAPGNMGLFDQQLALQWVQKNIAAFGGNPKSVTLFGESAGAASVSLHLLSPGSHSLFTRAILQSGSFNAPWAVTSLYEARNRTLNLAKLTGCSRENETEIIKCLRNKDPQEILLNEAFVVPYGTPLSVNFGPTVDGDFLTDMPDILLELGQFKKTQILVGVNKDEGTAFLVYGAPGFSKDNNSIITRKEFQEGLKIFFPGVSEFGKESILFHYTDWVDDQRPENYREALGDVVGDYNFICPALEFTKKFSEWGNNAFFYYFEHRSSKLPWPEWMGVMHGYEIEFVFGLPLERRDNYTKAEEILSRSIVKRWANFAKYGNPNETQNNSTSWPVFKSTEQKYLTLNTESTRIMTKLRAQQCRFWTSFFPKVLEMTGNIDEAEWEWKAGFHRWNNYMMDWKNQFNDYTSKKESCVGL

[4] = target: T1, AChE; experiment: Effect of heating the AChE reaction vials on time of detection of a positive sample; assay type: biochemical, eel; set-up: purchased Sigma-Aldrich; conditions: 0.1 ppm oxamyl in water; for Detection result, Heated: heating block 40° C.; for Detection result, Not Heated: room temperature (21° C.)
Method: Water obtained from reverse osmosis treatment was spiked with 0.1 ppm oxamyl, a carbamate pesticide. The pesticide-contaminated sample was tested using the procedure described in Example 4. Two sets of two reagent vials containing AChE were opened. To the first vial of each set was added 1 mL of the test sample containing pesticide. To the second vial of each set was added 1 mL of a negative control water. All vials were thoroughly mixed. One set of vials was placed in a heating block set at 40° C., while the other set of vials was allowed to stand at room temperature (21° C.). From each set of vials, 50 μL was sampled at 5, 10, 15, and 20 minutes and transferred to corresponding reaction zones in test tickets. After 15 minutes incubation, the fluorescence in the reaction zones of each ticket were measured on a reader.

T1 sequence (O42275 24-633): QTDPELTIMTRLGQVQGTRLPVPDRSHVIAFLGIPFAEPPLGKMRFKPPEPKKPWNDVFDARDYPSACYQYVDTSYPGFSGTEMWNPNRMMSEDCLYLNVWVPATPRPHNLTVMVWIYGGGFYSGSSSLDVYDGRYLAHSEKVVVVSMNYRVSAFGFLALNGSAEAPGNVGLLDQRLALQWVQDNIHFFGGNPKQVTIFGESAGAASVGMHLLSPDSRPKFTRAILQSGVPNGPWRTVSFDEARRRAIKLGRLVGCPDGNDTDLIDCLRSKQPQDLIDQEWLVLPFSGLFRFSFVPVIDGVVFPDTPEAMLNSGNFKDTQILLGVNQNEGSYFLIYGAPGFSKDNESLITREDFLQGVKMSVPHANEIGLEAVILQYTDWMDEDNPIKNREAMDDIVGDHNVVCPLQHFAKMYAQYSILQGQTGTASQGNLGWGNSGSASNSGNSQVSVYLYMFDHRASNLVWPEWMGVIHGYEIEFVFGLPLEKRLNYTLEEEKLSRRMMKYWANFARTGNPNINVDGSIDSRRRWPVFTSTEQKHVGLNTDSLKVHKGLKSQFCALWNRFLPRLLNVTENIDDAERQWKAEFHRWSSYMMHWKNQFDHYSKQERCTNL

In the case of `CNC(=O)O/N=C/C(C)(C)SC` [Aldicarb, aldicarb], the “Reaction with AChE (in words)” value [1] is reported as “react strongly with AChE”.
With `COP(N)(=O)SC` (stereo not shown) [Methamidophos, methamidophos] the “Reaction with CE compared with AChE (in words)” value [2] was “react more strongly with CE than with AChE”.
With `COP(=S)(OC)Oc1ccc([N+](=O)[O-])cc1` [Methyl Parathion, methyl parathion] the “Reaction with CE compared with AChE (in words)” value [2] was “react more strongly with CE than with AChE”.
`CNC(=O)O/N=C(\SC)C(=O)N(C)C` [Oxamyl, oxamyl] was tested, and the hue ratio [3] was 3.10, the “Reaction with AChE (in words)” value [1] was “react strongly with AChE” and the “Detection result, Heated” value ([4]; 5 min) was “positive”. For the same compound, the “Detection result, Heated” value ([4]; 10 min) was “positive”, the “Detection result, Heated” value ([4]; 15 min) was “positive” and the “Detection result, Heated” value ([4]; 20 min) was “positive”. The “Detection result, Not Heated” value ([4]; 5 min) was “negative”, the “Detection result, Not Heated” value ([4]; 10 min) was “negative” and the “Detection result, Not Heated” value ([4]; 15 min) was “positive”. For the same compound, the “Detection result, Not Heated” value ([4]; 20 min) was “positive”.
